# Source: patent publication US20160219881A1, “HERBICIDALLY ACTIVE 2-HALOGEN-4-ALKYNYL-PHENYL-PYRAZOLIDINE-DIONE OR PYRROLIDINE-DIONE DERIVATIVES” (SYNGENTA LIMITED, priority 2013, published 2016)
# What was measured:
# Assay type in all cases: in vivo
# [1] = test system: Triticum aestivum (TRZAW, winter wheat); test: Biological Example 3 (Test 2 glasshouse assay), post-emergence herbicidal activity
# Procedure: (§1) Seeds of a variety of monocotyledonous and dicotyledonous test plants are sown in standard soil in pots. The plants are cultivated for one day (for pre-emergence) or for about 12 days (range=10-13 days) (for post-emergence) under controlled conditions in a glasshouse (warm climate species at 24/18° C., cool climate species at 20/16° C., both at day/night; 16 hours light; 65% humidity).
# (§2) An “instant formulation”, known as the “IF50”, containing 50 g/litre (i.e. 5% w/v) of the “technical” (i.e. unformulated) active ingredient is prepared by dissolving the active ingredient in a mixture of organic solvents and emulsifier, details of which are provided in the Table below. This IF50 is then mixed with a small, variable amount of acetone to aid dissolution, before addition of a 0.2% v/v aqueous solution of the adjuvant X-77 (which is a mixture of alkyl aryl polyoxyethylene glycols and free fatty acids in isopropanol, CAS Registry number 11097-66-8), as the aqueous diluent, to form an aqueous spray solution which contains a predetermined concentration of the active ingredient (which varies depending on the application rate of the active ingredient to the plants) and 0.2% v/v of the adjuvant X-77. This aqueous spray solution is then sprayed onto the plants, after one day's cultivation (for pre-emergence) or after about 12 days' cultivation (for post-emergence).
# (§3) The test plants are then grown on, in a glasshouse (greenhouse) under controlled conditions (at either 24/18° C. or 20/16° C. (day/night) as mentioned above; 16 hours light; 65% humidity) and are watered twice daily. Either 15 days after application of the test compound (15 DAA) (for post-emergence), or 20 days after application of the test compound (20 DAA) (for pre-emergence), the test plants are evaluated visually, and an assessed percentage phytotoxicity score is given for each compound application on each plant species (where 100%=total damage to plant; 0%=no damage to plant).
# (§4) Cool climate crop plants: Triticum aestivum (TRZAW, winter wheat), Brassica napus (BRSNN, rape, also called oilseed rape or rapeseed), Beta vulgaris (BEAVA, sugar beet). Warm climate crop plants: Glycine max (GLXMA, soybean). Cool climate (“cool season”) grassy monocotyledonous weeds: Alopecurus myosuroides (ALOMY), Avena fatua (AVEFA), Lolium perenne (LOLPE). Warm climate (“warm season”) grassy monocotyledonous weeds: Setaria faberi (SETFA), SORVU (Sorghum bicolor (L.) Moench ssp. Bicolor, or Sorghum vulgare Pers.), Digitaria sanguinalis (DIGSA), Echinochloa crus-galli (ECHCG), and Brachiaria plantaginea (BRAPL).
# [2] = test system: Glycine max (GLXMA, soybean); test: as above
# Procedure: as §1, §2, §3, §4
# [3] = test system: Beta vulgaris (BEAVA, sugar beet); test: as above
# Procedure: as §1, §2, §3, §4
# [4] = test system: Brachiaria plantaginea (BRAPL); test: as above
# Procedure: as §1, §2, §3, §4
# [5] = test system: Echinochloa crus-galli (ECHCG); test: as above
# Procedure: as §1, §2, §3, §4
# [6] = test system: Alopecurus myosuroides (ALOMY); test: as above
# Procedure: as §1, §2, §3, §4
# [7] = test system: Brassica napus (BRSNN, rape); test: as above
# Procedure: as §1, §2, §3, §4
# [8] = test system: SORVU (Sorghum bicolor (L.) Moench ssp. Bicolor, or Sorghum vulgare Pers.); test: as above
# Procedure: as §1, §2, §3, §4
# Lolium perenne (LOLPE) = test: as above
# Procedure: as §1, §2, §3, §4
# Setaria faberi (SETFA) = test: as above
# Procedure: as §1, §2, §3, §4
# [9] = test system: Digitaria sanguinalis (DIGSA); test: as above
# Procedure: as §1, §2, §3, §4
# [10] = test system: Alopecurus myosuroides (ALOMY); test: Test 1A glasshouse assay, pre-emergence herbicidal activity; conditions: 312 h, 250 g/ha, 13 days after application, read-out: Pre-Emergence Herbicidal Activity (% Phytotoxicity) ALOMY
# Procedure: (§5) Seeds of a variety of test species are sown in standard soil (usually sandy soil) in pots. After cultivation for one day (pre-emergence) or after 8 days cultivation (post-emergence) under controlled conditions in a glasshouse (at 24/16° C., day/night; 14 hours light; 65% humidity), the plants are sprayed with an aqueous spray solution derived from the formulation of the technical active ingredient (compound) in acetone/water (50:50) solution containing 0.5% Tween 20 (polyoxyethylene sorbitan monolaurate, CAS RN 9005-64-5). The test plants are then grown under controlled conditions in a glasshouse (at 24/16° C., day/night; 14 hours light; 65% humidity) and watered twice daily. 13 days after application of the test compounds, for pre- and post-emergence, the test is evaluated visually for percentage phytotoxicity to each plant (where 100%=total damage to plant; 0%=no damage to plant).
# Alopecurus myosuroides (ALOMY), Setaria faberi (SETFA), Echinochloa crus-galli (ECHCG), Amaranthus retroflexus (AMARE), and Abutilon theophasti Medik. (ABUTH, common English name “velvetleaf”). Of these, Alopecurus myosuroides (ALOMY), Setaria faberi (SETFA), and Echinochloa crus-galli (ECHCG) are grassy monocotyledonous weeds.
# Lolium perenne (LOLPE), Triticum aestivum (TRZAW, winter wheat), Alopecurus myosuroides (ALOMY), Echinochloa crus-galli (ECHCG), and Avena fatua (AVEFA). All these are grassy monocotyledonous weeds and/or (for wheat) grassy crops.
# [11] = test system: Echinochloa crus-galli (ECHCG); test: as above; conditions: 312 h, 250 g/ha, 13 days after application, read-out: Pre-Emergence Herbicidal Activity (% Phytotoxicity) ECHCG
# Procedure: as §5
# Alopecurus myosuroides (ALOMY), Setaria faberi (SETFA), Echinochloa crus-galli (ECHCG), Amaranthus retroflexus (AMARE), and Abutilon theophasti Medik. (ABUTH, common English name “velvetleaf”). Of these, Alopecurus myosuroides (ALOMY), Setaria faberi (SETFA), and Echinochloa crus-galli (ECHCG) are grassy monocotyledonous weeds. […]
compound,measurement,setting,value
"CC#Cc1cc(C)c(C2C(=O)N3CCCCCN3C2=O)c(C)c1 [Compound A23, 2-(2,6-dimethyl-4-prop-1-ynyl-phenyl)-6,7,8,9-tetrahydro-5H-pyrazolo[1,2-a]diazepine-1,3-dione]",Post-Emergence Herbicidal Activity (Percentage Phytotoxicity) TRZAW,[1]; 30 g/ha,0%
same,Post-Emergence Herbicidal Activity (Percentage Phytotoxicity) TRZAW,[1]; 125 g/ha,50%
same,Post-Emergence Herbicidal Activity (Percentage Phytotoxicity) GLXMA,[2]; 30 g/ha,0%
same,Post-Emergence Herbicidal Activity (Percentage Phytotoxicity) GLXMA,[2]; 125 g/ha,70%
same,Post-Emergence Herbicidal Activity (Percentage Phytotoxicity) BEAVA,[3]; 30 g/ha,10%
same,Post-Emergence Herbicidal Activity (Percentage Phytotoxicity) BEAVA,[3]; 125 g/ha,40%
same,Post-Emergence Herbicidal Activity (Percentage Phytotoxicity) BRAPL,[4]; 30 g/ha (rate by row order),0%
same,Post-Emergence Herbicidal Activity (Percentage Phytotoxicity) BRAPL,[4]; 125 g/ha (rate by row order),10%
same,Post-Emergence Herbicidal Activity (Percentage Phytotoxicity) ECHCG,[5]; 30 g/ha (rate by row order),0%
same,Post-Emergence Herbicidal Activity (Percentage Phytotoxicity) ECHCG,[5]; 125 g/ha (rate by row order),20%
same,Post-Emergence Herbicidal Activity (Percentage Phytotoxicity) ALOMY,[6]; 30 g/ha,0%
same,Post-Emergence Herbicidal Activity (Percentage Phytotoxicity) ALOMY,[6]; 125 g/ha,50%
same,Post-Emergence Herbicidal Activity (Percentage Phytotoxicity) BRSNN,[7]; 30 g/ha,30%
same,Post-Emergence Herbicidal Activity (Percentage Phytotoxicity) BRSNN,[7]; 125 g/ha,50%
same,Post-Emergence Herbicidal Activity (Percentage Phytotoxicity) SORVU,[8]; 30 g/ha (rate by row order),50%
same,Post-Emergence Herbicidal Activity (Percentage Phytotoxicity) SORVU,[8]; 125 g/ha (rate by row order),70%
same,Post-Emergence Herbicidal Activity (Percentage Phytotoxicity) LOLPE,Lolium perenne (LOLPE); 30 g/ha,0%
same,Post-Emergence Herbicidal Activity (Percentage Phytotoxicity) LOLPE,Lolium perenne (LOLPE); 125 g/ha,40%
same,Post-Emergence Herbicidal Activity (Percentage Phytotoxicity) SETFA,Setaria faberi (SETFA); 30 g/ha (rate by row order),0%
same,Post-Emergence Herbicidal Activity (Percentage Phytotoxicity) SETFA,Setaria faberi (SETFA); 125 g/ha (rate by row order),70%
same,Post-Emergence Herbicidal Activity (Percentage Phytotoxicity) DIGSA,[9]; 30 g/ha (rate by row order),30%
same,Post-Emergence Herbicidal Activity (Percentage Phytotoxicity) DIGSA,[9]; 125 g/ha (rate by row order),70%
same,inhibition at 250 g/ha,[10],90%
same,inhibition at 250 g/ha,[11],90%
